Assay results from patent US10899723B2, “Heterocyclic containing cyclopropyl FXR modulators” (Hepagene Therapeutics (HK) Limited, priority 2016, dated 2021).

Assays:
FXR = target: T1, FXR (Homo sapiens, UniProt Q96RI1); assay: FXR Transactivation Assay (pBIND-FXR / pGL4.35 luciferase reporter in HEK293T); assay type: cell-based; conditions: HEK293T cells
T1 construct: expressed in transfected cells; host or cells: HEK293T
T1 sequence (Q96RI1 1-486): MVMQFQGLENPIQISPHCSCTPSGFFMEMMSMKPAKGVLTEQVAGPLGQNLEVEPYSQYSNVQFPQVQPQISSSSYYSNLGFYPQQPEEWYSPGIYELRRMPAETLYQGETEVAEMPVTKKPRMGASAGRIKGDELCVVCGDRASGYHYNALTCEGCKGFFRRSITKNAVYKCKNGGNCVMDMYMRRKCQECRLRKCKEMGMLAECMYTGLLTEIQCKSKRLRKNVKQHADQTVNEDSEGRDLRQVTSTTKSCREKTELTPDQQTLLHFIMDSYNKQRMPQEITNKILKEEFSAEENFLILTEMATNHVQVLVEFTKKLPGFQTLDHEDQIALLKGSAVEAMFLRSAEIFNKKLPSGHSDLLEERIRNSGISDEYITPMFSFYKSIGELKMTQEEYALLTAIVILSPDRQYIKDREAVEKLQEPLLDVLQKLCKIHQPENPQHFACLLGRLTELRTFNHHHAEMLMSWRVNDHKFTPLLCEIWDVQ
Method: FXR Transactivation Assay
pGL4.35 [luc2P/9XGAL4 UAS/Hygro]
DMEM medium, high glucose
Fetal Bovine Serum (FBS, heat-inactivated)
Penicillin-Streptomycin (10000 U/ml, 100 ml)
DMEM, High Glucose, HEPES, no Phenol Red
Opti-MEM® I Reduced Serum Medium
Steady-Glo™ Luciferase Assay System
TransIT-293 Transfection Reagent
GW4064 as a positive control
(§1) • 1. Hek293T cells were plated at 1.1*10^6/ml into a 100 mm dish. • 2. Cells were transfected with 8.4 μg of pBind-FXR, 1.26 μg of the reporter vector pGL4.35 (Promega). Cells were incubated at 37° C. under 5% CO2 atmosphere. • 3. All of compounds were 3-fold serial diluted from 10 mM stock for 10 doses in DMSO. • 4. Transfer compound dilutions into 384 well assay plates using liquid workstation. • 5. Seed 25 ul HEK293T cells into 384 well assay plate (prepared step 4) at 0.6*10^5/ml. Cells were incubated at 37° C. under 5% CO2 atmosphere overnight. • 6. Add 25 ul steady-Glo™ Luciferase Assay Reagent into each well of 384-well assay plate. • 7. Record the luminescence value on Envision 2104 plate reader. • 8. Calculate EC50 by fitting % Activity values and log of compound concentrations to nonlinear regression (dose response−variable slope) with Graphpad 5.0. FXR Coactivator Assay Reagents: LanthaScreen™ TR-FRET Farnesoid X Receptor Coactivator Assay GW4064 as a positive control Process: • 1. All of compounds were 3-fold serial diluted from 10 mM stock for 10 doses in DMSO. • 2. Dilute each 100× agonist serial dilution to 2× using Complete Coregulator buffer G. • 3. Transfer 10 μl of each of the 2× agonist serial dilutions to 384 well assay plates. • 4. […] Incubate at room temperature protected from light. • 7. Read the plate at wavelengths of 520 nm and 495 nm on Envision 2104 plate reader. • 8. Calculate the TR-FRET ratio by dividing the emission signal at 520 nm by the emission signal at 495 nm. • 9. Calculate EC50 by fitting % Activity values and log of compound concentrations to nonlinear regression (dose response−variable slope) with Graphpad 5.0.

FXR-LBD = target: T2, FXR-LBD (Homo sapiens, UniProt Q96RI1); assay: FXR Coactivator Assay (LanthaScreen TR-FRET); assay type: biochemical
T2 construct: Add 5 μl of 4×FXR-LBD to 384 well assay plates; purchased
T2 sequence (Q96RI1 262-486 limits assumed): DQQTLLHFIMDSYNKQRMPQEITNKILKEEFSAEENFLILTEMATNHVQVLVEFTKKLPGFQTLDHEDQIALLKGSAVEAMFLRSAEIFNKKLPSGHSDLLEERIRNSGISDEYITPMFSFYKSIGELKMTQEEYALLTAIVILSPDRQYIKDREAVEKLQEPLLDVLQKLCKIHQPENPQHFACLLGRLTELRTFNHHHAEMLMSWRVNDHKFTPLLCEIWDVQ
Method: as §1

| EC50 (FXR) [nM] | EC50 (FXR-LBD) [nM] | SMILES |
| --- | --- | --- |
| 10 to 100 | 10 to 100 | CC(C)c1onc(-c2c(Cl)cccc2Cl)c1COc1ccc(C2CC2(C)c2cncc(C(=O)O)c2)c(Cl)c1 (single isomer, unassigned) [IV-05-1, 5-[2-(2-Chloro-4-[[3-(2,6-dichlorophenyl)-5-(propan-2-yl)-1,2-oxazol-4-yl]methoxy]phenyl)-1-methylcyclopropyl] pyridine-3-carboxylic Acid] |
| 101 to 400 | 10 to 100 | CC(C)c1onc(-c2c(Cl)cccc2Cl)c1COc1ccc(C2CC2(C)c2cncc(C(=O)O)c2)c(Cl)c1 (single isomer, unassigned) [IV-05-2, 5-[2-(2-Chloro-4-[[3-(2,6-dichlorophenyl)-5-(propan-2-yl)-1,2-oxazol-4-yl]methoxy]phenyl)-1-methylcyclopropyl] pyridine-3-carboxylic Acid] |
| 101 to 400 | 10 to 100 | N#CC1(c2ccc(OCc3c(-c4c(Cl)cccc4Cl)noc3C3CC3)cc2Cl)CC1c1cccc(C(=O)O)c1 (single isomer, unassigned) [VII-03-1, 3-[2-(2-Chloro-4-[[5-cyclopropyl-3-(2,6-dichlorophenyl)-1,2-oxazol-4-yl]methoxy]phenyl)-2-cyanocyclopropyl] benzoic Acid] |
| 101 to 400 | 10 to 100 | CC(C)c1onc(-c2c(Cl)cccc2Cl)c1COc1ccc(C2CC2(C#N)c2cccc(C(=O)O)c2)c(Cl)c1 (stereo not drawn) [Compound V-02] |
| 401 to 5000 | 101 to 400 | CC(C)c1onc(-c2c(Cl)cccc2Cl)c1COc1ccc(C2CC2(C)c2ccc(C(=O)O)cc2)c(Cl)c1 (stereo not drawn) [IV-01] |
| 101 to 400 | 10 to 100 | CC(C)c1onc(-c2c(Cl)cccc2Cl)c1COc1ccc(C2CC2(C)c2cccc(C(=O)O)c2)c(Cl)c1 (stereo not drawn) [IV-02] |
| 101 to 400 | 10 to 100 | CC1(c2cccc(C(=O)O)c2)CC1c1ccc(OCc2c(-c3c(Cl)cccc3Cl)noc2C2CC2)cc1Cl (stereo not drawn) [IV-03] |
| 10 to 100 | 10 to 100 | CC(C)c1onc(-c2c(Cl)cccc2Cl)c1COc1ccc(C2CC2(C)c2cncc(C(=O)O)c2)c(Cl)c1 (stereo not drawn) [IV-05, 5-[2-(2-Chloro-4-[[3-(2,6-dichlorophenyl)-5-(propan-2-yl)-1,2-oxazol-4-yl]methoxy]phenyl)-1-methylcyclopropyl] pyridine-3-carboxylic Acid] |
| 10 to 100 | 10 to 100 | CC1(c2cncc(C(=O)O)c2)CC1c1ccc(OCc2c(-c3c(Cl)cccc3Cl)noc2C2CC2)cc1Cl (stereo not drawn) [IV-06, 5-[2-(2-Chloro-4-[[5-cyclopropyl-3-(2,6-dichlorophenyl)-1,2-oxazol-4-yl]methoxy]phenyl)-1-methylcyclopropyl] pyridine-3-carboxylic Acid] |
| 101 to 400 | 10 to 100 | COc1cc(C(=O)O)cc2sc(C3(C)CC3c3ccc(OCc4c(-c5c(Cl)cccc5Cl)noc4C4CC4)cc3Cl)nc12 (stereo not drawn) [IV-15, 2-[2-(2-Chloro-4-[[5-cyclopropyl-3-(2,6-dichlorophenyl)-1,2-oxazol-4-yl]methoxy]phenyl)-1-methylcyclopropyl]-4-methoxy-1,3-benzothiazole-6-carboxylic Acid] |
| 101 to 400 | 10 to 100 | CC(C)c1onc(-c2c(Cl)cccc2Cl)c1COc1ccc(C2CC2(C)c2cc(C(=O)O)nn2C(C)C)c(Cl)c1 (stereo not drawn) [IV-20] |
| 101 to 400 | 10 to 100 | CC(C)c1onc(-c2c(Cl)cccc2Cl)c1COc1ccc(C2(C)CC2c2ccc(C(=O)O)cc2)c(Cl)c1 (stereo not drawn) [VI-01, 4-(2-(2-Chloro-4-((3-(2,6-dichlorophenyl)-5-isopropylisoxazol-4-yl)methoxy)phenyl)-2-methylcyclopropyl) benzoic Acid] |
| 10 to 100 | 10 to 100 | CC(C)c1onc(-c2c(Cl)cccc2Cl)c1COc1ccc(C2(C)CC2c2cccc(C(=O)O)c2)c(Cl)c1 (stereo not drawn) [VI-02] |
| 10 to 100 | 10 to 100 | CC(C)c1onc(-c2c(Cl)cccc2Cl)c1COc1ccc(C2(C)CC2c2cncc(C(=O)O)c2)c(Cl)c1 (stereo not drawn) [VI-04, 5-[2-(2-Chloro-4-[[3-(2,6-dichlorophenyl)-5-(propan-2-yl)-1,2-oxazol-4-yl]methoxy]phenyl)-2-methylcyclopropyl] pyridine-3-carboxylic Acid] |
| 10 to 100 | 10 to 100 | CC1(c2ccc(OCc3c(-c4c(Cl)cccc4Cl)noc3C3CC3)cc2Cl)CC1c1cncc(C(=O)O)c1 (stereo not drawn) [VI-05] |
| 401 to 5000 | 10 to 100 | CC(C)c1onc(-c2c(Cl)cccc2Cl)c1COc1ccc(C2(C#N)CC2c2ccc(C(=O)O)cc2)c(Cl)c1 (stereo not drawn) [VII-01] |
| 101 to 400 | 10 to 100 | CC(C)c1onc(-c2c(Cl)cccc2Cl)c1COc1ccc(C2(C#N)CC2c2cccc(C(=O)O)c2)c(Cl)c1 (stereo not drawn) [VII-02, 3-[2-(2-Chloro-4-[[3-(2,6-dichlorophenyl)-5-(propan-2-yl)-1,2-oxazol-4-yl]methoxy]phenyl)-2-cyanocyclopropyl] benzoic Acid] |
| 10 to 100 | 10 to 100 | N#CC1(c2ccc(OCc3c(-c4c(Cl)cccc4Cl)noc3C3CC3)cc2Cl)CC1c1cccc(C(=O)O)c1 (stereo not drawn) [VII-03, 3-[2-(2-Chloro-4-[[5-cyclopropyl-3-(2,6-dichlorophenyl)-1,2-oxazol-4-yl]methoxy]phenyl)-2-cyanocyclopropyl] benzoic Acid] |
